Test results published in patent US20230295234A1, “ANTIMICROBIAL PEPTIDOMIMETICS” (SPEXIS AG, priority 2020, published 2023).
Like-named read-outs stand apart in the source and are kept apart here. Blank lines part the entries; values can stand above or below the compound they belong to. Bridge positions count the residues as written; N and C are the ends. Square brackets hold non-standard residues; d marks the D form. Triazole bridges read from a SMILES are 1,4-linked. Peptide text beside a SMILES is read from it. Pro(4R-NH2) = N[C@H]1CN[C@H](C(=O)O)C1; Aha = [N-]=[N+]=NCC[C@H](N)C(=O)O; Gly(N-2-aminoethyl) = NCCNCC(=O)O; Hyp = O=C(O)[C@@H]1C[C@@H](O)CN1; Gly(N(CH2)3NH2) = NCCCNCC(=O)O; Pen = CC(C)(S)[C@H](N)C(=O)O; dDab = NCC[C@@H](N)C(=O)O; Nle = CCCC[C@H](N)C(=O)O; Pra = C#CC[C@H](N)C(=O)O; Dab = NCC[C@H](N)C(=O)O

Key:
[1] = system: Escherichia coli ATCC 25922; settings: ATCC 25922
Protocol: (§1) Lyophilized peptides were weighed on a Microbalance (Mettler MT5) and dissolved in sterile water to a final concentration of 1 mg/mL. Stock solutions were kept at +4° C., light protected.
(§2) Colonies of the microorganisms were diluted in saline (0.85%, NaCl) and adjusted using a McFarland reader (bioMérieux SA, Marcy-l'Etoile, France) to 0.5 McFarland standard. Subsequently, the bacterial suspension was diluted in Mueller-Hinton II (MHII, cation adjusted) broth to give approximately 5×10^5 colony forming units (CFU/mL).
(§3) 10^6 colony forming units (CFU)/mL. Aliquots (90 μl) of inoculate were added to 10 μl of water+P-80 (Polysorbate 80, 0.002% final concentration) containing the peptide in serial two-fold dilutions at 10 fold final concentration. The following microorganisms were used to determine antibiotic selectivity of the peptides: Escherichia coli ATCC 25922, Escherichia coli MCR-1 Af 45 and Klebsiella pneumoniae SSI3010.

[2] = system: Escherichia coli MCR-1 Af 45
Protocol: as §1, §2, §3

[3] = system: Klebsiella pneumoniae SSI3010; settings: SSI3010
Protocol: as §1, §2, §3

[4] = system: human red blood cells (hRBC); assay: Hemolysis of human red blood cells; type: cell-based; settings: red cells of human, 1 h
Protocol: Lyophilized peptides were weighed on a Microbalance (Mettler MT5) and dissolved in sterile water to a final concentration of 1 mg/mL. Stock solutions were kept at +4° C., light protected. The peptides were tested for their hemolytic activity against human red blood cells (hRBC). Fresh hRBC were washed three times with phosphate buffered saline (PBS) and centrifuged for 5 min at 3000×g. Compounds (200 μg/mL) were incubated with 20% hRBC (v/v) for 1 h at 37° C. and shaking at 300 rpm. […] The samples were centrifuged, the supernatants were 8-fold diluted in PBS buffer and the optical densities (OD) were measured at 540 nm. […] Percent hemolysis was calculated as follows: (OD540peptide/OD540H2O)×100%.

[5] = Mueller-Hinton broth II, 18-20 hours at 35° C.

SMILES: CC[C@H](C)[C@H](NC(=O)[C@@H]1C[C@@H](O)CN1C(=O)[C@@H](NC(=N)N)C(C)C)C(=O)N[C@H](C(=O)N[C@@H](Cc1ccc(O)cc1)C(=O)N[C@@H]1C(=O)N[C@@H](CCC(=O)O)C(=O)N[C@@H](CCCNC(=N)N)C(=O)N[C@@H](CCN)C(=O)N[C@@H]([C@@H](C)O)C(=O)N[C@H](CCN)C(=O)N[C@@H](CCCCN)C(=O)N[C@H](C(=O)N[C@@H](CCN)C(=O)N[C@@H](CCCNC(=N)N)C(=O)N[C@@H](Cc2ccc(O)cc2)C(=O)O)CSSC1(C)C)[C@@H](C)O [Example 193] (HELM PEPTIDE1{[CC(C)[C@H](NC(=N)N)C(=O)[*:2]].[Hyp].I.T.Y.[Pen].E.R.[Dab].T.[NCC[C@@H](N[*:1])C(=O)[*:2]].K.C.[Dab].R.Y}$PEPTIDE1,PEPTIDE1,6:R3-13:R3$$$V2.0)
Escherichia coli ATCC 25922 MIC [1]: 0.25 mg/L | Escherichia coli MCR-1 Af 45 MIC [2, 5]: 0.25 mg/L | Klebsiella pneumoniae SSI3010 MIC [3]: 0.5 mg/L | Hemolysis at 0.2 g/L [4]: 0%

SMILES: CC[C@H](C)[C@H](NC(=O)CN(CCN)C(=O)[C@@H](NC(=O)[C@@H]1CCCN1)C(C)C)C(=O)N[C@H](C(=O)N[C@@H](Cc1ccc(O)cc1)C(=O)N[C@@H]1C(=O)N[C@@H](CC(N)=O)C(=O)N[C@@H](CCCNC(=N)N)C(=O)N[C@@H](CCN)C(=O)N[C@@H]([C@@H](C)O)C(=O)N[C@H](CCN)C(=O)N[C@@H](CCCCN)C(=O)N[C@H](C(=O)N[C@@H](CCN)C(=O)N[C@@H](CCCNC(=N)N)C(=O)N[C@@H](Cc2ccc(O)cc2)C(=O)O)CSSC1(C)C)[C@@H](C)CC [Example 28, Pro-Val-Ndab-Ile-Ile-Tyr-Pen-Asn-Arg-Dab-Thr-^DDab-Lys-Cys-Dab-Arg-Tyr] (HELM PEPTIDE1{P.V.[NCCN(CC(=O)[*:2])[*:1]].I.I.Y.[Pen].N.R.[Dab].T.[NCC[C@@H](N[*:1])C(=O)[*:2]].K.C.[Dab].R.Y}$PEPTIDE1,PEPTIDE1,7:R3-14:R3$$$V2.0)
Escherichia coli ATCC 25922 MIC [1]: 0.25 mg/L | Escherichia coli MCR-1 Af 45 MIC ([2]; MCR-1 Af 45): 0.125 mg/L | Klebsiella pneumoniae SSI3010 MIC [3]: 0.125 mg/L | Hemolysis at 0.2 g/L [4]: 0%

SMILES: CC[C@H](C)[C@H](NC(=O)[C@@H](NC(=O)[C@@H]1C[C@@H](O)CN1C(=O)[C@@H](N)C(C)C)[C@@H](C)CC)C(=O)N[C@@H](Cc1ccc(O)cc1)C(=O)N[C@H]1Cc2cn(nn2)CC[C@@H](C(=O)N[C@@H](CCN)C(=O)N[C@@H](CCCNC(=N)N)C(=O)N[C@@H](Cc2ccc(O)cc2)C(=O)O)NC(=O)[C@H](CCCCN)NC(=O)[C@@H](CCN)NC(=O)[C@H]([C@@H](C)O)NC(=O)[C@H](CCN)NC(=O)[C@H](CCCNC(=N)N)NC(=O)[C@H](CC(N)=O)NC1=O [Example 204] (H-V[Hyp]IIY[Pra]NR[Dab]T[dDab]K[Aha][Dab]RY-OH; triazole 6-13)
Escherichia coli ATCC 25922 MIC [1]: 0.25 mg/L | Escherichia coli MCR-1 Af 45 MIC [2, 5]: 0.25 mg/L | Klebsiella pneumoniae SSI3010 MIC [3]: 2 mg/L | Hemolysis at 0.2 g/L [4]: 0%

SMILES: CCCC[C@H](NC(=O)[C@H](CCCNC(=N)N)NC(=O)[C@H](CCN)NC(=O)[C@@H]1CSSC(C)(C)[C@H](NC(=O)[C@H](Cc2ccc(O)cc2)NC(=O)[C@@H](NC(=O)[C@@H](NC(=O)[C@@H]2C[C@@H](N)CN2C(=O)[C@@H](NC(=O)CNCCN)C(C)C)[C@@H](C)CC)[C@@H](C)CC)C(=O)N[C@@H](CC(N)=O)C(=O)N[C@@H](CCCNC(=N)N)C(=O)N[C@@H](CCN)C(=O)N[C@@H]([C@@H](C)O)C(=O)N[C@H](CCN)C(=O)N[C@@H](CCCCN)C(=O)N1)C(=O)O [Example 11, Ndab-Val-Pro((4R)NH2)-Ile-Ile-Tyr-Pen-Asn-Arg-Dab-Thr-^DDab-Lys-Cys-Dab-Arg-Nle] (H-[Gly(N-2-aminoethyl)]V[Pro(4R-NH2)]IIY[Pen]NR[Dab]T[dDab]KC[Dab]R[Nle]-OH; disulfide 7-14)
Escherichia coli ATCC 25922 MIC [1]: 0.0625 mg/L | Escherichia coli MCR-1 Af 45 MIC ([2]; MCR-1 Af 45): ≤0.03125 mg/L | Klebsiella pneumoniae SSI3010 MIC [3]: 0.125 mg/L | Hemolysis at 0.2 g/L [4]: 0%

Continued, in another order:

Escherichia coli ATCC 25922 MIC [1]: 0.125 mg/L | Escherichia coli MCR-1 Af 45 MIC ([2]; MCR-1 Af 45): 0.125 mg/L | Klebsiella pneumoniae SSI3010 MIC [3]: 0.25 mg/L
SMILES: CC[C@H](C)[C@H](NC(=O)[C@@H](NC(=O)[C@@H]1CCCN1C(=O)[C@@H](NC(=O)CN(C)C(=O)CN(C)C(=O)[C@@H](N)CCCCN)C(C)C)[C@@H](C)CC)C(=O)N[C@@H](Cc1ccc(O)cc1)C(=O)N[C@@H]1C(=O)N[C@@H](CC(N)=O)C(=O)N[C@@H](CCCNC(=N)N)C(=O)N[C@@H](CCN)C(=O)N[C@@H]([C@@H](C)O)C(=O)N[C@H](CCN)C(=O)N[C@@H](CCCCN)C(=O)N[C@H](C(=O)N[C@@H](CCN)C(=O)N[C@@H](CCCNC(=N)N)C(=O)N[C@@H](Cc2ccc(O)cc2)C(=O)O)CSSC1(C)C [Example 95, Lys-Sar-Sar-Val-Pro-Ile-Ile-Tyr-Pen-Asn-Arg-Dab-Thr-^DDab-Lys-Cys-Dab-Arg-Tyr] (HELM PEPTIDE1{K.[Sar].[Sar].V.P.I.I.Y.[Pen].N.R.[Dab].T.[NCC[C@@H](N[*:1])C(=O)[*:2]].K.C.[Dab].R.Y}$PEPTIDE1,PEPTIDE1,9:R3-16:R3$$$V2.0)
Hemolysis at 0.2 g/L [4]: 0%

Escherichia coli ATCC 25922 MIC [1]: ≤0.03125 mg/L | Escherichia coli MCR-1 Af 45 MIC ([2]; MCR-1 Af 45): ≤0.03125 mg/L | Klebsiella pneumoniae SSI3010 MIC [3]: 0.0625 mg/L
SMILES: CC[C@H](C)[C@H](NC(=O)[C@@H](NC(=O)[C@@H]1CCCN1C(=O)[C@@H](NC(=O)[C@@H]1CCCN1C(=O)[C@H](CCCCN)NC(=O)[C@@H](N)CCCCN)C(C)C)[C@@H](C)CC)C(=O)N[C@@H](Cc1ccc(O)cc1)C(=O)N[C@H]1CSSC(C)(C)[C@@H](C(=O)N[C@@H](CCN)C(=O)N[C@@H](CCCNC(=N)N)C(=O)N[C@@H](Cc2ccc(O)cc2)C(=O)O)NC(=O)[C@H](CCCCN)NC(=O)[C@@H](CCN)NC(=O)[C@H]([C@@H](C)O)NC(=O)[C@H](CCN)NC(=O)[C@H](CCCNC(=N)N)NC(=O)[C@H](CC(N)=O)NC1=O [Example 103] (HELM PEPTIDE1{K.K.P.V.P.I.I.Y.C.N.R.[Dab].T.[NCC[C@@H](N[*:1])C(=O)[*:2]].K.[Pen].[Dab].R.Y}$PEPTIDE1,PEPTIDE1,9:R3-16:R3$$$V2.0)
Hemolysis at 0.2 g/L [4]: 0%

Escherichia coli ATCC 25922 MIC [1]: 0.0625 mg/L | Escherichia coli MCR-1 Af 45 MIC ([2]; MCR-1 Af 45): 0.0625 mg/L | Klebsiella pneumoniae SSI3010 MIC [3]: 0.125 mg/L
SMILES: CC[C@H](C)[C@H](NC(=O)[C@@H]1C[C@@H](O)CN1C(=O)[C@@H](NC(=O)[C@@H]1CCCN1C(=O)[C@H](CCCCN)NC(=O)[C@@H](N)CCCCN)C(C)C)C(=O)N[C@H](C(=O)N[C@@H](Cc1ccc(O)cc1)C(=O)N[C@@H]1C(=O)N[C@@H](CC(N)=O)C(=O)N[C@@H](CCCNC(=N)N)C(=O)N[C@@H](CCN)C(=O)N[C@@H]([C@@H](C)O)C(=O)N[C@H](CCN)C(=O)N[C@@H](CCCCN)C(=O)N[C@H](C(=O)N[C@@H](CCN)C(=O)N[C@@H](CCCNC(=N)N)C(=O)N[C@@H](Cc2ccc(O)cc2)C(=O)O)CSSC1(C)C)[C@@H](C)O [Example 118, Lys-Lys-Pro-Val-Hyp-Ile-Thr-Tyr-Pen-Asn-Arg-Dab-Thr-^DDab-Lys-Cys-Dab-Arg-Tyr] (HELM PEPTIDE1{K.K.P.V.[Hyp].I.T.Y.[Pen].N.R.[Dab].T.[NCC[C@@H](N[*:1])C(=O)[*:2]].K.C.[Dab].R.Y}$PEPTIDE1,PEPTIDE1,9:R3-16:R3$$$V2.0)
Hemolysis at 0.2 g/L [4]: 0%

Escherichia coli ATCC 25922 MIC [1]: 0.0625 mg/L | Klebsiella pneumoniae SSI3010 MIC [3]: 0.25 mg/L
SMILES: CC[C@H](C)[C@H](NC(=O)[C@@H]1C[C@@H](O)CN1C(=O)[C@@H](NC(=O)[C@@H]1C[C@@H](N)CN1C(=O)CNCCCN)C(C)C)C(=O)N[C@H](C(=O)N[C@@H](Cc1ccc(O)cc1)C(=O)N[C@@H]1C(=O)N[C@@H](CC(N)=O)C(=O)N[C@@H](CCCNC(=N)N)C(=O)N[C@@H](CCN)C(=O)N[C@@H]([C@@H](C)O)C(=O)N[C@H](CCN)C(=O)N[C@@H](CCCCN)C(=O)N[C@H](C(=O)N[C@@H](CCN)C(=O)N[C@@H](CCCNC(=N)N)C(=O)N[C@@H](Cc2ccc(O)cc2)C(=O)O)CSSC1(C)C)[C@@H](C)O [Example 51, Norn-Pro((4R)NH2)-Val-Hyp-Ile-Thr-Tyr-Pen-Asn-Arg-Dab-Thr-^DDab-Lys-Cys-Dab-Arg-Tyr] (H-[Gly(N(CH2)3NH2)][Pro(4R-NH2)]V[Hyp]ITY[Pen]NR[Dab]T[dDab]KC[Dab]RY-OH; disulfide 8-15)
Hemolysis at 0.2 g/L [4]: 0%
